# Measured values reported in ChEMBL document CHEMBL1909046, “DrugMatrix in vitro pharmacology data”.
# Tested on: not listed separately
# Assay: DRUGMATRIX: ATPase, Na+/K+ enzyme inhibition (substrate: ATP)
# Format: tissue-based, Sus scrofa, Heart
# Settings: Not Active = under 50% inhibition at 10 µM
SMILES,IC50,Ki
Cc1c(OCC(F)(F)F)ccnc1C[S+]([O-])c1nc2ccccc2[nH]1 (stereo unspecified) [LANSOPRAZOLE],Not Active,Not Active
O=c1cc(N2CCOCC2)oc2c(-c3ccccc3)cccc12 [LY-294002],Not Active,Not Active
COc1ccc2[nH]cc(CCNC(C)=O)c2c1 [MELATONIN],Not Active,Not Active
NC(=O)C[S+]([O-])C(c1ccccc1)c1ccccc1 (stereo unspecified) [MODAFINIL],Not Active,Not Active
CCN(CC)CCOCCC1=CCC2CC1C2(C)C (stereo unspecified) [MYRTECAINE],Not Active,Not Active
O=C(O)c1cccnc1Nc1cccc(C(F)(F)F)c1 [NIFLUMIC ACID],Not Active,Not Active
COC(=O)Nc1nc2ccc(C(=O)c3cccs3)cc2[nH]1 [NOCODAZOLE],Not Active,Not Active

# Target: T1, Cholecystokinin receptor type A (Homo sapiens, UniProt P32238); note: in other assays of this panel Not Active means under 50% inhibition at 10 µM
# T1 sequence (P32238 whole entry): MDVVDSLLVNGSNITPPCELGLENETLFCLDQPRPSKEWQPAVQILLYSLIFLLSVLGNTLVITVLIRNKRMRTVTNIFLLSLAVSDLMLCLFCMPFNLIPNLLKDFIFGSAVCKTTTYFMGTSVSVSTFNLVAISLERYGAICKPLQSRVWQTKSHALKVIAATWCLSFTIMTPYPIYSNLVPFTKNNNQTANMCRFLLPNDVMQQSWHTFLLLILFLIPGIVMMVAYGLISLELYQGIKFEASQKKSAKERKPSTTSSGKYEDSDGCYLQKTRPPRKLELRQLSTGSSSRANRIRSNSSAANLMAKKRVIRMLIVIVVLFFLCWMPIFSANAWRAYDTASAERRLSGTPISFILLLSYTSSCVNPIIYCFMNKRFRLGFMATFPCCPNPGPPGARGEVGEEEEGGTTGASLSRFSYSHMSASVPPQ
# Format: cell membranes, Membrane
# Settings: 1321-n1
row,SMILES,IC50
1,Cc1c(OCC(F)(F)F)ccnc1C[S+]([O-])c1nc2ccccc2[nH]1 (stereo unspecified) [LANSOPRAZOLE],Not Active
2,O=c1cc(N2CCOCC2)oc2c(-c3ccccc3)cccc12 [LY-294002],Not Active
3,COc1ccc2[nH]cc(CCNC(C)=O)c2c1 [MELATONIN],Not Active
4,NC(=O)C[S+]([O-])C(c1ccccc1)c1ccccc1 (stereo unspecified) [MODAFINIL],Not Active
5,CCN(CC)CCOCCC1=CCC2CC1C2(C)C (stereo unspecified) [MYRTECAINE],Not Active
6,O=C(O)c1cccnc1Nc1cccc(C(F)(F)F)c1 [NIFLUMIC ACID],Not Active
7,COC(=O)Nc1nc2ccc(C(=O)c3cccs3)cc2[nH]1 [NOCODAZOLE],Not Active

# Target: Melanocortin receptor 3 (Homo sapiens, UniProt P41968); note: in other assays of this panel Not Active means under 50% inhibition at 10 µM
# Sequence (P41968 whole entry): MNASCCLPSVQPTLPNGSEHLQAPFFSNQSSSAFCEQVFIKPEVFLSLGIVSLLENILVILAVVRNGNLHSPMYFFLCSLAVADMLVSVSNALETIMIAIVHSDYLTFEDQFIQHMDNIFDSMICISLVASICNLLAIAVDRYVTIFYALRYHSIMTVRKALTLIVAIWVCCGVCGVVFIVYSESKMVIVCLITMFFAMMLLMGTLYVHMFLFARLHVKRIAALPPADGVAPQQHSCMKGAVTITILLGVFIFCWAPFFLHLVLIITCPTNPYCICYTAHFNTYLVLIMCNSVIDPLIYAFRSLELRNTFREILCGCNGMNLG
# Format: cell membranes, HEK293, Membrane
# Settings: hek293
row,SMILES,IC50
1,Cc1c(OCC(F)(F)F)ccnc1C[S+]([O-])c1nc2ccccc2[nH]1 (stereo unspecified) [LANSOPRAZOLE],Not Active
2,O=c1cc(N2CCOCC2)oc2c(-c3ccccc3)cccc12 [LY-294002],Not Active
3,COc1ccc2[nH]cc(CCNC(C)=O)c2c1 [MELATONIN],Not Active
4,NC(=O)C[S+]([O-])C(c1ccccc1)c1ccccc1 (stereo unspecified) [MODAFINIL],Not Active
5,CCN(CC)CCOCCC1=CCC2CC1C2(C)C (stereo unspecified) [MYRTECAINE],Not Active
6,O=C(O)c1cccnc1Nc1cccc(C(F)(F)F)c1 [NIFLUMIC ACID],Not Active
7,COC(=O)Nc1nc2ccc(C(=O)c3cccs3)cc2[nH]1 [NOCODAZOLE],Not Active

# Target: T2, Amine oxidase [flavin-containing] A (Homo sapiens, UniProt P21397)
# T2 sequence (P21397 whole entry): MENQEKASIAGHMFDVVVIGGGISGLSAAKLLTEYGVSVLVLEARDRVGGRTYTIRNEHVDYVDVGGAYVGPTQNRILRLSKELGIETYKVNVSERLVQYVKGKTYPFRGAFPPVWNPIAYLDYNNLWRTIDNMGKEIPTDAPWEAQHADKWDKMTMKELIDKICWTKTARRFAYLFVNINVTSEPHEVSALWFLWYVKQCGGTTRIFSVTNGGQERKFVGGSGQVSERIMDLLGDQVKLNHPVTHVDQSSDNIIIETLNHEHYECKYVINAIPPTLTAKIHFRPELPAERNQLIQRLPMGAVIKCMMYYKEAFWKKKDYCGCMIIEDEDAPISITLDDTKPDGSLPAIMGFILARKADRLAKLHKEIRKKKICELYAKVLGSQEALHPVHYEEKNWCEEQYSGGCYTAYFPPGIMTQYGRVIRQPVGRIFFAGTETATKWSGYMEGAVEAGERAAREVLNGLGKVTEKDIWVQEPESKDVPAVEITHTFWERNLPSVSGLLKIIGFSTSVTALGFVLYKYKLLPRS
# Assay: DRUGMATRIX: Monoamine Oxidase MAO-A enzyme inhibition (substrate: Kynuramine)
# Parameters: species or system BTI-TN-5B1-4
# Settings: Not Active = under 50% inhibition at 10 µM; read-out: IC50
row,SMILES,IC50
1,COC(=O)Nc1nc2ccc(C(=O)c3cccs3)cc2[nH]1 [NOCODAZOLE],24.1 µM

# Same assay, conditions: bti-tn-5b1-4; Not Active = under 50% inhibition at 10 µM
row,SMILES,IC50
1,Cc1c(OCC(F)(F)F)ccnc1C[S+]([O-])c1nc2ccccc2[nH]1 (stereo unspecified) [LANSOPRAZOLE],Not Active
2,O=c1cc(N2CCOCC2)oc2c(-c3ccccc3)cccc12 [LY-294002],Not Active
3,COc1ccc2[nH]cc(CCNC(C)=O)c2c1 [MELATONIN],Not Active
4,NC(=O)C[S+]([O-])C(c1ccccc1)c1ccccc1 (stereo unspecified) [MODAFINIL],Not Active
5,CCN(CC)CCOCCC1=CCC2CC1C2(C)C (stereo unspecified) [MYRTECAINE],Not Active
6,O=C(O)c1cccnc1Nc1cccc(C(F)(F)F)c1 [NIFLUMIC ACID],Not Active

# Tested on: not listed separately
# Assay: DRUGMATRIX: Phosphodiesterase PDE4 enzyme inhibition (substrate: [3H]cAMP + cAMP)
# Settings: u-937; Not Active = under 50% inhibition at 10 µM
SMILES,IC50,Ki
Cc1c(OCC(F)(F)F)ccnc1C[S+]([O-])c1nc2ccccc2[nH]1 (stereo unspecified) [LANSOPRAZOLE],Not Active,Not Active
COc1ccc2[nH]cc(CCNC(C)=O)c2c1 [MELATONIN],Not Active,Not Active
NC(=O)C[S+]([O-])C(c1ccccc1)c1ccccc1 (stereo unspecified) [MODAFINIL],Not Active,Not Active
CCN(CC)CCOCCC1=CCC2CC1C2(C)C (stereo unspecified) [MYRTECAINE],Not Active,Not Active
O=C(O)c1cccnc1Nc1cccc(C(F)(F)F)c1 [NIFLUMIC ACID],Not Active,Not Active
COC(=O)Nc1nc2ccc(C(=O)c3cccs3)cc2[nH]1 [NOCODAZOLE],Not Active,Not Active

# Same assay, conditions: u-937; Not Active = under 50% inhibition at 10 µM; read-out: IC50
row,SMILES,IC50
1,O=c1cc(N2CCOCC2)oc2c(-c3ccccc3)cccc12 [LY-294002],10.4 µM

# Target: T3, Caspase-1 (Homo sapiens, UniProt P29466);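 note: Caspase-1 enzyme inhibition assay with a peptide substrate; in other assays of this panel Not Active means under 50% inhibition at 10 µM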
# T3 sequence (P29466 whole entry): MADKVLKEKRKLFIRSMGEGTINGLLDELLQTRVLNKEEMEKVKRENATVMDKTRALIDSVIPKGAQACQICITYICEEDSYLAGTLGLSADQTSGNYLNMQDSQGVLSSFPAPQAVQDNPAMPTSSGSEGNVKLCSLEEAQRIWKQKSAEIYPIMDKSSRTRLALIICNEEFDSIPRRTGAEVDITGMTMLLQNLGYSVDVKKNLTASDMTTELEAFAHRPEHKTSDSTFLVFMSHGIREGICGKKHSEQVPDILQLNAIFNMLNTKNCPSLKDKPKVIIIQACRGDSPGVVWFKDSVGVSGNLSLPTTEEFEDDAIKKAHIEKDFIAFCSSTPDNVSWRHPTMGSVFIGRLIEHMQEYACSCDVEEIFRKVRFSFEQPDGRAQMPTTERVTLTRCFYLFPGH
# Parameters: species or system Escherichia coli
# Settings: not given
row,SMILES,IC50
1,Cc1c(OCC(F)(F)F)ccnc1C[S+]([O-])c1nc2ccccc2[nH]1 (stereo unspecified) [LANSOPRAZOLE],Not Active
2,O=c1cc(N2CCOCC2)oc2c(-c3ccccc3)cccc12 [LY-294002],Not Active
3,COc1ccc2[nH]cc(CCNC(C)=O)c2c1 [MELATONIN],Not Active
4,NC(=O)C[S+]([O-])C(c1ccccc1)c1ccccc1 (stereo unspecified) [MODAFINIL],Not Active
5,CCN(CC)CCOCCC1=CCC2CC1C2(C)C (stereo unspecified) [MYRTECAINE],Not Active
6,O=C(O)c1cccnc1Nc1cccc(C(F)(F)F)c1 [NIFLUMIC ACID],Not Active
7,COC(=O)Nc1nc2ccc(C(=O)c3cccs3)cc2[nH]1 [NOCODAZOLE],Not Active

# Target: Mitogen-activated protein kinase 3 (Homo sapiens, UniProt P27361)
# Sequence (P27361 whole entry): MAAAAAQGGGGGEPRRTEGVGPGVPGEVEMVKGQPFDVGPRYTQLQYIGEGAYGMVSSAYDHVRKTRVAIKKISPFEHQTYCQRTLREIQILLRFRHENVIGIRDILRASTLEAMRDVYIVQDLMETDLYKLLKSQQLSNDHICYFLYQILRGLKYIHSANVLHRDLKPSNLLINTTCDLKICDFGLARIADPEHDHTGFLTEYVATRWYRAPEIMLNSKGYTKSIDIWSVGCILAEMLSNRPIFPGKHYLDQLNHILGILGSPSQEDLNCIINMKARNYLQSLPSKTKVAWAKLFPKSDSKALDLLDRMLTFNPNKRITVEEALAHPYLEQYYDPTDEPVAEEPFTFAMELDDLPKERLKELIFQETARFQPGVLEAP
# Assay: DRUGMATRIX: Protein Serine/Threonine Kinase, ERK1 enzyme inhibition (substrate: Myelin Basic Protein)
# Parameters: species or system Escherichia coli
# Settings: Not Active = under 50% inhibition at 10 µM
row,SMILES,IC50
1,Cc1c(OCC(F)(F)F)ccnc1C[S+]([O-])c1nc2ccccc2[nH]1 (stereo unspecified) [LANSOPRAZOLE],Not Active
2,O=c1cc(N2CCOCC2)oc2c(-c3ccccc3)cccc12 [LY-294002],Not Active
3,COc1ccc2[nH]cc(CCNC(C)=O)c2c1 [MELATONIN],Not Active
4,NC(=O)C[S+]([O-])C(c1ccccc1)c1ccccc1 (stereo unspecified) [MODAFINIL],Not Active
5,CCN(CC)CCOCCC1=CCC2CC1C2(C)C (stereo unspecified) [MYRTECAINE],Not Active
6,O=C(O)c1cccnc1Nc1cccc(C(F)(F)F)c1 [NIFLUMIC ACID],Not Active
7,COC(=O)Nc1nc2ccc(C(=O)c3cccs3)cc2[nH]1 [NOCODAZOLE],Not Active

# Target: Cytochrome P450 2C9 (Homo sapiens, UniProt P11712); note: in other assays of this panel Not Active means under 50% inhibition at 10 µM
# Sequence (P11712 whole entry): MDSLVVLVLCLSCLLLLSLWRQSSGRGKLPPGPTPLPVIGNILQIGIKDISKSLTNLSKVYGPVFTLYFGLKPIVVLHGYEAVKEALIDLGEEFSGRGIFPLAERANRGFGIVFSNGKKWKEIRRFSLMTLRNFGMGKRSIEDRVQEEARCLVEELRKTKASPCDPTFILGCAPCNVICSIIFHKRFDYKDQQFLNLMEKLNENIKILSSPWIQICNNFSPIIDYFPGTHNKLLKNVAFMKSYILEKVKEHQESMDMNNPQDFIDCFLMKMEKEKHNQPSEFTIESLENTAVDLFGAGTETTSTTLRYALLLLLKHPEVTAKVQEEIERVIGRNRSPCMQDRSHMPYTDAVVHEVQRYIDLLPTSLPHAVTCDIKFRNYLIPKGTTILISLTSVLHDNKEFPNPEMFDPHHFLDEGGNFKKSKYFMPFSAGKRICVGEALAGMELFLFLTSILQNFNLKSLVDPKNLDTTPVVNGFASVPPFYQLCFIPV
# Settings: bti-tn-5b1-4
SMILES,IC50,Ki
Cc1c(OCC(F)(F)F)ccnc1C[S+]([O-])c1nc2ccccc2[nH]1 (stereo unspecified) [LANSOPRAZOLE],Not Active,Not Active
O=c1cc(N2CCOCC2)oc2c(-c3ccccc3)cccc12 [LY-294002],Not Active,Not Active
COc1ccc2[nH]cc(CCNC(C)=O)c2c1 [MELATONIN],Not Active,Not Active
NC(=O)C[S+]([O-])C(c1ccccc1)c1ccccc1 (stereo unspecified) [MODAFINIL],Not Active,Not Active
CCN(CC)CCOCCC1=CCC2CC1C2(C)C (stereo unspecified) [MYRTECAINE],Not Active,Not Active
O=C(O)c1cccnc1Nc1cccc(C(F)(F)F)c1 [NIFLUMIC ACID],Not Active,Not Active
COC(=O)Nc1nc2ccc(C(=O)c3cccs3)cc2[nH]1 [NOCODAZOLE],Not Active,Not Active
